How the values were obtained:
[1] = tested on: Isolated cardiac myocytes from nNOS deficient rats; assay: Isolated cardiac myocytes: sarcomere length and systolic calcium transient responses; format: cell-based; settings: versus baseline; for sarcomere length (SL), a measure of myocardial contraction (% change from baseline): FIG. 1A; for systolic calcium transient (% change from baseline): FIG. 1B
Description: Isolated cardiac myocytes from nNOS deficient rats (known to have increased xanthine oxidase activity), were evaluated for responses at baseline (BL or bl), then to allopurinol, then to nitrated allopurinol. The concentration of allopurinol used was 0.5×10^−3 M. The concentration of nitrated allopurinol used was 10^−4M. Evaluation was carried out for sarcomere length (SL), a measure of myocardial contraction, and for systolic calcium transient which drives myocardial contraction. The results for evaluation of sarcomere length are shown in FIG. 1A and results for evaluation of systolic calcium transient are shown in FIG. 1B.

dilated cardiomyopathy = assay: Patient case, dilated cardiomyopathy (Working Example II); format: in vivo; settings: 300 mg PO BID, over the ensuing week
Source text: A person presents with a dilated cardiomyopathy and is begun on a standard regimen including ace inhibitors, diuretics, and digoxin with little improvement.

class 3 angina = assay: Patient case, class 3 angina (Working Example III); format: in vivo; settings: 300 mg/day; over two weeks; class 3 before treatment
Description: A person with class 3 angina is begun on nitrated allopurinol (16), 300 mg/day.

[2] = tested on: crush wound to their left lower extremity, ischemic for six hours; assay: Patient case, ischemic crush wound with revascularization (Working Example IV); format: in vivo; settings: emergency surgery
Source text: A person has a crush wound to their left lower extremity and undergoes emergency surgery.

sickle cell disease = assay: Patient case, sickle cell disease (Working Example V); format: in vivo; settings: 300 mg/day, over the following year
Description: A person with sickle cell disease presents with pulmonary hypertension and LFT abnormalities. They had had four admissions to the emergency in the past year with painful crisis. They are begun n 300 mg/day of nitrated allopurinol (16) with a decrease in their pulmonary artery pressure over the following year from a mean of 35 mm Hg to 30 mm Hg.

hyperlipidemia = assay: Patient case, hyperlipidemia with calcification of coronaries and aorta (Working Example VI); format: in vivo; settings: 300 mg/day; over the following two years
[3] = tested on: bleomycin-induced lung injury; assay: Patient case, bleomycin-induced lung injury (Working Example VII); format: in vivo; settings: 300 PO BID; over the following week; on 50% oxygen; from 60 (on 100% oxygen)
Source text: A person with bleomycin-induced lung injury is begun on nitrated allopurinol (16), 300 PO BID. The PO2 improves from 60 (on 100% oxygen) to 65 mm Hg on 50% oxygen over the following week.

[4] = tested on: congestive heart failure and a dilated cardiomyopathy; assay: Patient case, congestive heart failure and dilated cardiomyopathy (Working Example IX); format: in vivo; settings: 300 mg POQD, one week later
Description: A person with congestive heart failure and a dilated cardiomyopathy is begun on nitrated allopurinol (16), 300 mg POQD. One week later, their ejection fraction had improved from 35% to 40%, their blood pressure had decreased from 130/80 to 110/80, and […] pO2 has improved from 70 to 80 mm Hg on room air.

Parkinson's disease = assay: Patient case, Parkinson's disease (Working Example X); format: in vivo; settings: 300 mg/day; after three weeks; treated with L-dopa
Source text: A person with Parkinson's disease treated with L-dopa has persistent tremor and motor problems.

Alzheimer's disease = assay: Patient case, Alzheimer's disease (Working Example XI); format: in vivo; settings: 300 mg/day; after 3 months
Description: A person with Alzheimer's disease is begun on 300 mg/day nitrated allopurinol (16). Their memory and cognitive function stabilizes after 3 months.

leg pain and diabetes = assay: Patient case, leg pain and diabetes (Working Example XII); format: in vivo; settings: 300 mg/day
ALS = assay: Patient case, ALS (Working Example XIII); format: in vivo; settings: 300 mg/day; after three weeks
Description: A person with ALS with progressive deterioration, stabilizes after three weeks at 300 mg/day of nitrated allopurinol (16).

[5] = tested on: asthmatic with frequent exacerbations; assay: Patient case, asthma (Working Example XIV); format: in vivo; settings: 300 mg/day
Description: A asthmatic with frequent exacerbations is begun on 300 mg/day nitrated allopurinol (16).

Oc1ncnc2[nH]ncc12 [allopurinol, reference compound]
sarcomere length (SL), a measure of myocardial contraction (% change from baseline) ([1]; allopurinol 0.5×10^−3 M): rise | systolic calcium transient (% change from baseline) ([1]; allopurinol 0.5×10^−3 M): rise

O=c1c2cnn(CCCO[N+](=O)[O-])c2ncn1CCCO[N+](=O)[O-] [nitrated allopurinol (16), 1,5-bis(3-nitrooxypropyl)-1,5-dihydro-4H-pyrazolo[3,4-d]pyrimidin-4-one]
sarcomere length (SL), a measure of myocardial contraction (% change from baseline) ([1]; nitrated allopurinol 10^−4M): increase obtained for nitrated allopurinol being greater than increase obtained for allopurinol | systolic calcium transient (% change from baseline) ([1]; nitrated allopurinol 10^−4M): increase obtained for nitrated allopurinol being greater than increase obtained for allopurinol | shortness of breath (dilated cardiomyopathy): decrease in a shortness of breath | left ventricular function (dilated cardiomyopathy; on standard regimen with little improvement): improvement of left ventricular function | angina classification (class 3 angina): improved to class 2 | aggravation of injury following revascularization [2]: no aggravation of injury following revascularization | LFT abnormalities (sickle cell disease): resolve | painful crisis (sickle cell disease; four admissions with painful crisis in the past year): only one painful crisis | pulmonary artery pressure (mean) (sickle cell disease; from a mean of 35 mm Hg): 30 mm Hg | disease (calcification of coronaries and aorta) (hyperlipidemia): mild regression of their disease | PO2 [3]: 65 mm Hg | symptoms on angina [4]: decreased | ejection fraction ([4]; from 35%): 40% | blood pressure ([4]; from 130/80): 110/80 | pO2 ([4]; on room air, from 70): 80 mm Hg | symptoms (persistent tremor and motor problems) (Parkinson's disease): symptoms improve | memory and cognitive function (Alzheimer's disease): stabilizes | pain (leg pain) (leg pain and diabetes): pain decreases | distance they can walk (leg pain and diabetes; unresponsive to treatment before): improves | progressive deterioration (ALS): stabilizes | steroid use [5]: successfully tapered

Reference: US7956062B2, “Reactive oxygen generating enzyme inhibitor with nitric oxide bioactivity and uses thereof” (Duke University, priority 2004, dated 2011)
